The values that follow come from ChEMBL document CHEMBL1201862, “PubChem BioAssay data set” (2004).

Assay [1] has as its target T1, Apoptotic protease-activating factor 1 (Homo sapiens, UniProt O14727).
T1 sequence (O14727 whole entry): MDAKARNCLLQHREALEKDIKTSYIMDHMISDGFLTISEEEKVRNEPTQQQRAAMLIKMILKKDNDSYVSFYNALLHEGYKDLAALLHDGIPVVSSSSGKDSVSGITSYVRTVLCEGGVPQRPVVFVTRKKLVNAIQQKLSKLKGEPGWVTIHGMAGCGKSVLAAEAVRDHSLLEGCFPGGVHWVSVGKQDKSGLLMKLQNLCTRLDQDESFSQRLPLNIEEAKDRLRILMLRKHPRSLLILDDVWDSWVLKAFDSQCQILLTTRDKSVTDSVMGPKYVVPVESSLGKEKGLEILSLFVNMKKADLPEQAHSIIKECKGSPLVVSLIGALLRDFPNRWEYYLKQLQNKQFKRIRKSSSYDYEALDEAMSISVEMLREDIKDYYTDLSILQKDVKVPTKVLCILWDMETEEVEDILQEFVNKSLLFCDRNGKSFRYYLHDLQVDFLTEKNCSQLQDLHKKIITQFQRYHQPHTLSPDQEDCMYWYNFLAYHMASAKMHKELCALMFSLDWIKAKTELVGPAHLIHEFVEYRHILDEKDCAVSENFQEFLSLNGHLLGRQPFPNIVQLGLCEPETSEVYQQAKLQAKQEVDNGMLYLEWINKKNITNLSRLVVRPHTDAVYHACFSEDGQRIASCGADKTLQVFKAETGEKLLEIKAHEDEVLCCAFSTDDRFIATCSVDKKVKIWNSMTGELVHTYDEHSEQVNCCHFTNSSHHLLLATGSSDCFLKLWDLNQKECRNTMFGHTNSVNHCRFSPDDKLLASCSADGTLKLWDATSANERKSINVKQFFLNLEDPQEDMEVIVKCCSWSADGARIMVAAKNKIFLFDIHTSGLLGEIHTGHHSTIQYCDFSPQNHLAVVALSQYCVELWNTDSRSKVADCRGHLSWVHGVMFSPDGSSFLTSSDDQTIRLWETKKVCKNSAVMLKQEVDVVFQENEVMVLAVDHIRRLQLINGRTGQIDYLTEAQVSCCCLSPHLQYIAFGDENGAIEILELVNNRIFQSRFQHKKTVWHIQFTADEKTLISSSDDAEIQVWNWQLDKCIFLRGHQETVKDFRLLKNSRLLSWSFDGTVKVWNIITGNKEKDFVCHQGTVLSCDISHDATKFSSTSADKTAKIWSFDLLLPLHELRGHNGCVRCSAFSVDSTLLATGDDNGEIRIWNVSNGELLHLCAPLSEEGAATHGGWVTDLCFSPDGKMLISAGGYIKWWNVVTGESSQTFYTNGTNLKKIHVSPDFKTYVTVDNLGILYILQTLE
Type of assay: functional.

Assay [2] addresses T2, Sentrin-specific protease 8 (Homo sapiens, UniProt Q96LD8).
T2 sequence (Q96LD8 whole entry): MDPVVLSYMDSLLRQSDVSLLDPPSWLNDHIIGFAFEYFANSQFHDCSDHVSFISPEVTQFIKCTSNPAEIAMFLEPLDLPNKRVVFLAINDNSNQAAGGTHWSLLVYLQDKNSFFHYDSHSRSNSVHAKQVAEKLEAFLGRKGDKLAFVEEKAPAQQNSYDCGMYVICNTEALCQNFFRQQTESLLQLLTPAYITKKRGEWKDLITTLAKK
Type of assay: functional.

Assay [3] concerns the target T2, Sentrin-specific protease 8. Type of assay: functional. The source holds these as a separate data set.
Assay [4] shares this target. Put plainly: inhibition of human SENP8 cleavage activity – biochemical, luminescence, SAR follow-up (AID 504501). The class given is functional.
Assay [5] addresses T3, Caspase-3 (Homo sapiens, UniProt P42574).
T3 sequence (P42574 whole entry): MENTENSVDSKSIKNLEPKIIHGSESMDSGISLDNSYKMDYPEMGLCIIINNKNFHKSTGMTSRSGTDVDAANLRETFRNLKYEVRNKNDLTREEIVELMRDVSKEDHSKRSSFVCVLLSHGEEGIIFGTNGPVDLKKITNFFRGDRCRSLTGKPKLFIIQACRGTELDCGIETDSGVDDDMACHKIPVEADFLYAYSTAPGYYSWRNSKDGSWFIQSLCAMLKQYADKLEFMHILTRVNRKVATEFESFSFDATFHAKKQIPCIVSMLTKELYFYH
Description: SAR Analysis of small molecule inhibitors of Sentrin-specific proteases (SENPs) using a Caspase-3 Selectivity assay. [Related pubchem assays (depositor defined):AID2540, AID2599, AID434973, AID489001]. Type of assay: functional.

For assay [6], the target named is T4, Sentrin-specific protease 6 (Homo sapiens, UniProt Q9GZR1).
T4 sequence (Q9GZR1 whole entry): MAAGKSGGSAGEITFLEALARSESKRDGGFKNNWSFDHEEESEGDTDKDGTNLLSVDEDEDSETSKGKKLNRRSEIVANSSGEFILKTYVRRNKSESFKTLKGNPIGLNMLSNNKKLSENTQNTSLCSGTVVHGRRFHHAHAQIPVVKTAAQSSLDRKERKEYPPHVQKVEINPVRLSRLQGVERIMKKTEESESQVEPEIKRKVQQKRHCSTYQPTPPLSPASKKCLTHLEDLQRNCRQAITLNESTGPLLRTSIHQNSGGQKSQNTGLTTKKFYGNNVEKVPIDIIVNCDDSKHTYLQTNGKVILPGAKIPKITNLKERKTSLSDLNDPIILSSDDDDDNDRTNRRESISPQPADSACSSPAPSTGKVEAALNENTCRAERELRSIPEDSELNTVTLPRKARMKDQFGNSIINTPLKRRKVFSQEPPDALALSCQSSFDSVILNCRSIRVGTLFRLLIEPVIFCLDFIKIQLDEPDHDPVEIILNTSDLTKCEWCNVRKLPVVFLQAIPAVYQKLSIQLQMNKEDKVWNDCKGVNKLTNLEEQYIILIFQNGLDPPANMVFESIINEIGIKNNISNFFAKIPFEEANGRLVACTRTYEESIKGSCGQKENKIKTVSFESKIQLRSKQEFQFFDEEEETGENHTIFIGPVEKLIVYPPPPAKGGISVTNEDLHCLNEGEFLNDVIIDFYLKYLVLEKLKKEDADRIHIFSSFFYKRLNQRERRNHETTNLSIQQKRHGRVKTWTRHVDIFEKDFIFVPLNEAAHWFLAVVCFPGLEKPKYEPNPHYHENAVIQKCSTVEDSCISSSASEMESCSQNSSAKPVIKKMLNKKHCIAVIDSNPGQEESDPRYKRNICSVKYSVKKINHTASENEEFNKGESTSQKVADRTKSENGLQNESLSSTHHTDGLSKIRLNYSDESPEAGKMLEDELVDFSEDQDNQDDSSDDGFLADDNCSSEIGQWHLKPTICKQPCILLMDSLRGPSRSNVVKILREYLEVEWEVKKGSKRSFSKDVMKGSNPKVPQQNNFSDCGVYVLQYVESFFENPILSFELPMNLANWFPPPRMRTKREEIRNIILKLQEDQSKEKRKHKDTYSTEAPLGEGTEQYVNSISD
Description: SAR Analysis of small molecule inhibitors of Sentrin-specific protease 6 (SENP6) using a Luminescent assay. [Related pubchem assays (depositor defined):AID2582, AID2599]. Type of assay: functional.

The target in assay [7] is T5, Sentrin-specific protease 7 (Homo sapiens, UniProt Q9BQF6).
T5 sequence (Q9BQF6 whole entry): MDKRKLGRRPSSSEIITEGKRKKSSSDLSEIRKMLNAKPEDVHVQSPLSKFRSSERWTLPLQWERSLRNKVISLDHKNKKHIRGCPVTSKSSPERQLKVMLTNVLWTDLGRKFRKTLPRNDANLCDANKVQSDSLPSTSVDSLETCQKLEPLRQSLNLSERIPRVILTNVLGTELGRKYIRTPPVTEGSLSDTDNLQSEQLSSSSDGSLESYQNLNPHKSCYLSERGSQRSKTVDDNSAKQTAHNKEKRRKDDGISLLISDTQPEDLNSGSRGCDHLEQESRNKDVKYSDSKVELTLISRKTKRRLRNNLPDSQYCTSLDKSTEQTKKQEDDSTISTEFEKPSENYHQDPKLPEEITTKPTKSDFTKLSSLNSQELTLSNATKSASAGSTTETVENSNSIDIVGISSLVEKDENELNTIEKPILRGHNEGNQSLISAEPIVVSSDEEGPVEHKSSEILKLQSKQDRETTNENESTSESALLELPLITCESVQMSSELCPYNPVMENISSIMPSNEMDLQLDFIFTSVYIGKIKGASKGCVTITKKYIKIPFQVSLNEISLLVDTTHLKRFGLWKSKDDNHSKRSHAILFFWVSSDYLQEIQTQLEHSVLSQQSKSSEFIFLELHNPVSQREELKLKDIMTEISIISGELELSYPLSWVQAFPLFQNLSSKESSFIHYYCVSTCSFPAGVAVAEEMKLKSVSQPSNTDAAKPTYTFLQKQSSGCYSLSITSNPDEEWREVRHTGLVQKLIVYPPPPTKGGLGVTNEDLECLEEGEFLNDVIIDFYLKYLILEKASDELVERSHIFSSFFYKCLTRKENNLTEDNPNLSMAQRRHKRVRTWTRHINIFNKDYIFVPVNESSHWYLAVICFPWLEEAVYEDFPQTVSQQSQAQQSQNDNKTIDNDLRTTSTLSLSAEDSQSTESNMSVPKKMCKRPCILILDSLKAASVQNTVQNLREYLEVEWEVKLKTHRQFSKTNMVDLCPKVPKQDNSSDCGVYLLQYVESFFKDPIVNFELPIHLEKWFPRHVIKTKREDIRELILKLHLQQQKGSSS
Description: inhibition of human SENP7 cleavage activity – biochemical, luminescence, SAR follow-up (AID 504497). Type of assay: functional.

In assay [8] the target is T6, Endoribonuclease toxin MazF (Escherichia coli K-12, UniProt P0AE70).
T6 sequence (P0AE70 whole entry): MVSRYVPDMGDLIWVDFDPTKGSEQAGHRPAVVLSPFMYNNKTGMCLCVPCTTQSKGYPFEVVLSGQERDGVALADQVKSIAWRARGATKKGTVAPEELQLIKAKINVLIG
Put plainly: activation of MazEF endoribonuclease cleavage – biochemical, fluorescence, single-stranded RNA substrate, uHTS hits, dose response (AID 588481). Type of assay: functional.

The target of assay [9] is T6, Endoribonuclease toxin MazF. Put plainly: substrate-only fluorescence increase artefacts – biochemical, single-stranded RNase substrate, counter-screen for MazEF activator project, dose response (AID 588502). The class given is functional.
For assay [10], the target named is T3, Caspase-3. Type of assay: functional.
Assay [11] addresses T5, Sentrin-specific protease 7. Type of assay: functional.
In assay [12] the target is T4, Sentrin-specific protease 6. Type of assay: functional.
In assay [13] the target is T2, Sentrin-specific protease 8. Type of assay: functional. The source holds these as a separate data set.
The target of another assay is T7, Protein skinhead-1 (Caenorhabditis elegans, UniProt P34707).
T7 sequence (P34707 whole entry): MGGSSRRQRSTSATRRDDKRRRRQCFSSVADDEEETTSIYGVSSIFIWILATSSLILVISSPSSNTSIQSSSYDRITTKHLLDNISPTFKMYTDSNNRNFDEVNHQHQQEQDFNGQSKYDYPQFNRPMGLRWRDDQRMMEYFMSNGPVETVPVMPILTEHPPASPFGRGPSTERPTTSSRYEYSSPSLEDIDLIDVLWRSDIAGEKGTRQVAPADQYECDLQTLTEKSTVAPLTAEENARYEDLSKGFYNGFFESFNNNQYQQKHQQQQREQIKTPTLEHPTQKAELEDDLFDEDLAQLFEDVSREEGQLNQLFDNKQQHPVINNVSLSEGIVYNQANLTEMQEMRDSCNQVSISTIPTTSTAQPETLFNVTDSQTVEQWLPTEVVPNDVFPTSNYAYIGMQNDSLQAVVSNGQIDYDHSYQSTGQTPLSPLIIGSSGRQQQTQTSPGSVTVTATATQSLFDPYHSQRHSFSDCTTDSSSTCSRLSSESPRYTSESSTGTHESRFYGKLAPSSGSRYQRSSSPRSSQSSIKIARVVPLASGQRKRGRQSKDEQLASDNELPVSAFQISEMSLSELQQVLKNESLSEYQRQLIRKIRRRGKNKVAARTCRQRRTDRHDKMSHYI
The class given is functional.

In a further assay the target is Cytochrome P450 2C9 (Homo sapiens, UniProt P11712).
Cytochrome P450 2C9, sequence (P11712 whole entry): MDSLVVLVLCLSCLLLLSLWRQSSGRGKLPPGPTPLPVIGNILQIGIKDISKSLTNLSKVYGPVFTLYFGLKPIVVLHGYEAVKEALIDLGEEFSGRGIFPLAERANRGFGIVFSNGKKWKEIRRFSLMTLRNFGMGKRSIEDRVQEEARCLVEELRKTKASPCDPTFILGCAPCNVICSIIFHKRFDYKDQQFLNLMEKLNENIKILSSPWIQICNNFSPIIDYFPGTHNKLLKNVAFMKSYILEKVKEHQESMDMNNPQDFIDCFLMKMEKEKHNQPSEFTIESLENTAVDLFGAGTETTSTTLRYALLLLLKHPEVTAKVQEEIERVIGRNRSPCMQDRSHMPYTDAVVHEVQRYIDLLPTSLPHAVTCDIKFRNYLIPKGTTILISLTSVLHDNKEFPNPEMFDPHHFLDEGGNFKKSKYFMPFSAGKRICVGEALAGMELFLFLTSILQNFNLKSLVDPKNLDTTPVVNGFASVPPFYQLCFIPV

The structures appear in SMILES notation. Activity calls are given as the source filed them. Rule as the data show it, for most assays here: actives have a measured IC50 and inactives only a lower limit. A value given as a limit tells only on which side of the number the result lay.

For `CC1=NN(c2ccc(C(F)(F)F)cn2)C(=O)C1`, the IC50 – broadly, the point on the concentration scale where inhibition reaches its midpoint – in [1] was 17.7 µM (active); in assay [2], 10.1 µM (active); in assay [3] it was 15.6 µM (active).
Turning to `Cc1ccc(N/N=C/c2c[nH]c3ccccc23)cc1`, the IC50 was 7.41 µM (active) in assay [4], 6.02 µM (active) on Caspase-3 [5], 6.76 µM (active) in [6] and 3.21 µM (active) in assay [7].
Take `O=C(Nc1cc[n+](-c2nc3ccccc3nc2[N-]S(=O)(=O)c2ccccc2)cc1)c1cccs1`: the EC50 in assay [8] and in assay [9] was > 99 µM (inactive) in each case.
Turning to `FC(F)(F)c1ccnc(Oc2ccc(C3=NCCS3)cc2)c1`, the IC50 is 11.5 µM (active) at Caspase-3 [10]; 2.36 µM (active) in assay [11]; 4.94 µM (active) in assay [12]; 5.09 µM (active) in assay [13]; 94.5 µM (inactive) at Protein skinhead-1.
Take `CC(C)(C)NC(=O)COc1ccc(-c2ccccc2)cc1`: the IC50 at Caspase-3 [10] is 24.6 µM (active); in [11], 12.3 µM (active); in [12] it was 52.6 µM (active); in assay [13], 70.7 µM (active).
`COc1cc(/C=N/NC(=O)c2cccnc2)ccc1OC(=O)c1ccc2c(c1)OCO2`: the EC50 in assay [8] and in assay [9] was > 99 µM (inactive) throughout. For the same compound, the AC50 (in general, the concentration at which the activity in the assay is half-maximal) on Cytochrome P450 2C9 is 7.94 µM (inconclusive).
For `CCOC(=O)c1sc(-c2ccc(OC)cc2)cc1N`, the IC50 is 37.5 µM (active) at Caspase-3 [10], 7.33 µM (active) in [11], 12.1 µM (active) in assay [12] and 10.7 µM (active) in assay [13].
